Each structure is given as a SMILES string.

The subject of this experiment is MRC5-hT fibroblasts expressing HCMV UL38 (glucose-free medium). In words: rescue of cell number (AUC of dose-response) relative to untreated glucose-free control; higher = stronger protection from glucose-starvation-induced cell death. The conditions noted are these: glucose: 0 (glucose-free DMEM); 96 h; dose range 0.001-20, 10-point curve µM. The procedure: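 MRC5-hT fibroblasts stably expressing HCMV UL38 were seeded in 384-well plates, serum-starved for 24 h, switched to glucose-free DMEM, and pin-transferred with a metabolism-focused compound library as 10-point dose curves (1 nM to 20 µM; n=2). Nuclei were counted by Hoechst imaging 96 h after glucose withdrawal.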
In the case of `O=C(O)Cc1ccccc1Nc1c(Cl)cccc1Cl` [Diclofenac], the “rescue of cell number” value was -20%.

Take `CC[n+]1c(-c2ccccc2)c2cc(N)ccc2c2ccc(N)cc21` [Ethidium_Bromide]: the “rescue of cell number” value was found to be 97.6%. For the molecule `N[C@H](C(=O)O)[C@@H]1CC(Cl)=NO1` [Acivicin], the “rescue of cell number” value is -32.4%. Consider `CC(C)(C(=O)c1cccnc1)c1cccnc1` [Metyrapone], for which the “rescue of cell number” value was 87.6%. For the molecule `NS(=O)(=O)c1ccc(NC(=O)Nc2ccc(F)cc2)cc1` [U_104], the “rescue of cell number” value was -34.7%.

`CN(NC(=O)CC(=O)NN(C)C(=S)c1ccccc1)C(=S)c1ccccc1` [Elesclomol]: the “rescue of cell number” value came to 111%.

As for `O=C(Cc1cccc(OC(F)(F)F)c1)Nc1ccc(CCCCc2nnc(NC(=O)Cc3ccccn3)s2)nn1` [CB-839], the “rescue of cell number” value was determined as 38.5%. The figure for `N#Cc1cn([C@@H]2O[C@H](CO)[C@@H](O)[C@H]2O)c2ncnc(N)c12` [Toyocamycin] is 9.71%; for `O=C(O)c1ccc2cc(-c3ccc(O)c(C45CC6CC(CC(C6)C4)C5)c3)ccc2c1` [CD_437] it is 25.4%; for `CN1C(=O)[C@@]23C[C@]4([C@]56C[C@@]78SS[C@@](CO)(C(=O)N7[C@H]5Nc5ccccc56)N(C)C8=O)c5ccccc5N[C@@H]4N2C(=O)[C@]1(CO)SS3` [Chaetocin] it is 11.4%. As to `O=C(Cc1ccccc1)Nc1nnc(CCSCCc2nnc(NC(=O)Cc3ccccc3)s2)s1` [BPTES], the “rescue of cell number” value is -24.3%.

Take `Cc1cc2c(C(C)C)c(O)c(O)c(C=O)c2c(O)c1-c1c(C)cc2c(C(C)C)c(O)c(O)c(C=O)c2c1O` [Gossypol]: the “rescue of cell number” value amounted to 43.9%. In the case of `CN(C)CC[C@H](CSc1ccccc1)Nc1ccc(S(=O)(=O)NC(=O)c2ccc(N3CCN(Cc4ccccc4-c4ccc(Cl)cc4)CC3)cc2)cc1[N+](=O)[O-]` [ABT_737], the “rescue of cell number” value was -33.6%. As for `O=C(O)CN1C(=O)c2cccc3cccc(c23)C1=O` [Alrestatin], the “rescue of cell number” value amounted to 4.91%. `Cc1nccn1-c1ccc(Sc2cccc(C3(C(N)=O)CCOCC3)c2)cc1`: the “rescue of cell number” value was determined as 13%. With `NC(=O)c1ncn([C@@H]2O[C@H](CO)[C@@H](O)[C@H]2O)c1N` [AICAR] the figure was -30.3%; with `Cc1n[nH]c(C)c1Cc1sc2c(c1C(=O)N1C[C@H](O)CO1)c(=O)n(C)c(=O)n2CC(C)C`, 78.9%. With `CC1=C(/C=C/C(C)=C/C=C/C(C)=C/C(=O)Nc2ccc(O)cc2)C(C)(C)CCC1` [Fenretinide], the “rescue of cell number” value came to 12.2%. On to `CCCCCC[C@H]1C(=O)O[C@H](C)[C@H](NC(=O)c2cccc(NC=O)c2O)C(=O)O[C@@H](C)[C@@H]1OC(=O)CC(C)C` [Antimycin_A], for which the “rescue of cell number” value is -7.1%. Turning to `C=C(C)[C@H]1Cc2c(ccc3c2O[C@@H]2COc4cc(OC)c(OC)cc4[C@@H]2C3=O)O1` [Rotenone], the “rescue of cell number” value came out at 13.7%. Take `CNCCC(Oc1ccc(C(F)(F)F)cc1)c1ccccc1` (centres undefined) [Fluoxetine]: the “rescue of cell number” value stood at 47%.

As for `CC(=O)c1c(O)c(C)c(O)c(Cc2c(O)c3c(c(C(=O)/C=C/c4ccccc4)c2O)OC(C)(C)C=C3)c1O` [Rottlerin], the “rescue of cell number” value turned out to be 24.6%. As to `c1cc(-c2cnn3cc(-c4ccc(OCCN5CCCCC5)cc4)cnc23)ccn1` [Dorsomorphin], the “rescue of cell number” value came out at 66.2%. Consider `O=C(/C=C/c1ccc(O)c(O)c1)O[C@@H]1C[C@](O)(C(=O)O)C[C@@H](O)[C@H]1O` [Chlorogenic_acid], for which the “rescue of cell number” value was 95%.

Turning to `CC(=O)Oc1ccccc1C(=O)O` [Aspirin], the “rescue of cell number” value worked out at 25.2%. `Nc1ncnc2c1C(=O)N(c1ccc([C@H]3CC[C@H](CC(=O)O)CC3)cc1)CCO2`: the “rescue of cell number” value is -20.9%. The figure for `CCCCCCCCCCCCCCCCOc1nc2ccc(C)cc2c(=O)o1` [Cetilistat] is -5.21%; for `NC(=O)NO` [Hydroxyurea] it is 61.6%. For `CN(Cc1ccc(C(C)(C)C)cc1)Cc1cccc2ccccc12` [Butenafine], the “rescue of cell number” value is 14.4%. The figure for `CCN(CC)Cc1ccc(C(=O)N(CCc2ccccc2OC)[C@@H]2CCNC2)cc1` is 63.9%; for `O=C1N[C@@H]2[C@@H](O)[C@@H](O)[C@H](O)[C@@H](CO)N2C1=O` [Kifunensine] it is 123%. As to `O=C(O)c1nn(Cc2ccc(Cl)cc2Cl)c2ccccc12` [Lonidamine], the “rescue of cell number” value was -29%. `CC/C=C\C[C@H]1C(=O)CC[C@@H]1CC(=O)O` [Jasmonate]: the “rescue of cell number” value was -19.1%. For the molecule `CCOC(=O)[C@@H](N)CCC(=O)N[C@@H](CSCc1ccccc1)C(=O)N[C@@H](C(=O)OCC)c1ccccc1` [Ezatiostat], the “rescue of cell number” value is -9.45%. For `CC(C)c1nc(N(C)S(C)(=O)=O)nc(-c2ccc(F)cc2)c1/C=C/[C@@H](O)C[C@@H](O)CC(=O)O` [Rosuvastatin], the “rescue of cell number” value worked out at 45.3%. As to `COc1ccc(N(C(=O)CCl)C(C(=O)NCCc2ccccc2)c2cccs2)cc1Cl` (centres undefined) [ML-162], the “rescue of cell number” value amounted to 15.3%. As to `C[S+]([O-])CCCCN=C=S` (centres undefined) [Sulforaphane], the “rescue of cell number” value is -10.7%. Regarding `CCOc1ccccc1-n1c(C(C)N2CCN(C(=O)COc3ccc(Cl)cc3)CC2)nc2ccccc2c1=O` (centres undefined) [Erastin], the “rescue of cell number” value stood at 68.6%.

For the molecule `Cc1ccccc1CN1C(=O)C2=C(CCN(Cc3ccccc3)C2)N2CCN=C12` [ONC-201], the “rescue of cell number” value turned out to be 24%.

Take `O=C(/C=C/c1cccnc1)NCCCCC1CCN(C(=O)c2ccccc2)CC1` [FK_866]: the “rescue of cell number” value was determined as 26.9%.

In the case of `O=C(O)C(=O)CBr` [Bromopyruvic_acid], the “rescue of cell number” value turned out to be 134%. In the case of `Nc1nc2c(c(=O)[nH]1)C[C@@H](CCc1ccc(C(=O)N[C@@H](CCC(=O)O)C(=O)O)cc1)CN2` [Lometrexol], the “rescue of cell number” value is -30.2%. As for `Nc1nc(=S)c2[nH]cnc2[nH]1` [6_Thioguanine], the “rescue of cell number” value worked out at 42.9%.

Turning to `S=C=NCCc1ccccc1` [PEITC], the “rescue of cell number” value came out at 37.8%. Consider `O=C(c1cc(Cc2n[nH]c(=O)c3ccccc23)ccc1F)N1CCN(C(=O)C2CC2)CC1` [Olaparib], for which the “rescue of cell number” value is -15.1%. As for `C[C@H]1O[C@@H](O[C@H]2[C@@H](O)C[C@H](O[C@H]3[C@@H](O)C[C@H](O[C@H]4CC[C@@]5(C)[C@H](CC[C@@H]6[C@@H]5CC[C@]5(C)[C@@H](C7=CC(=O)OC7)CC[C@]65O)C4)O[C@@H]3C)O[C@@H]2C)C[C@H](O)[C@@H]1O` [Digitoxin], the “rescue of cell number” value is 23.7%. On to `COc1cc(O)c2c(c1)C(=O)c1cc(C)cc(O)c1C2=O` [Physcion], for which the “rescue of cell number” value was -37.6%. For the molecule `OC[C@H]1O[C@H]([S-])[C@H](O)[C@@H](O)[C@@H]1O.[Au+]` [Aurothioglucose], the “rescue of cell number” value is -13.7%. For the molecule `CCC(C)N(C)C(=O)c1cc2ccccc2c(-c2ccccc2Cl)n1` (centres undefined), the “rescue of cell number” value turned out to be 15.2%. On to `NS(=O)(=O)c1cc(C(=O)O)c(NCc2ccco2)cc1Cl` [Furosemide], for which the “rescue of cell number” value was -15.9%. Consider `COP(=O)(CCC(N)C(=O)O)Oc1cccc(CC(=O)O)c1` (centres undefined) [GGsTop], for which the “rescue of cell number” value was -24%. Turning to `CCOC(=O)c1sc(NC(=O)c2ccco2)c(SC#N)c1C` [CBR 5884], the “rescue of cell number” value was 88%. The figure for `Cc1c2oc3c(C)ccc(C(=O)N[C@@H]4C(=O)N[C@H](C(C)C)C(=O)N5CCC[C@H]5C(=O)N(C)CC(=O)N(C)[C@@H](C(C)C)C(=O)O[C@@H]4C)c3nc-2c(C(=O)N[C@@H]2C(=O)N[C@H](C(C)C)C(=O)N3CCC[C@H]3C(=O)N(C)CC(=O)N(C)[C@@H](C(C)C)C(=O)O[C@@H]2C)c(N)c1=O` [Actinomycin_D] is 27.1%; for `CN(CCOc1ccc(CC2SC(=O)NC2=O)cc1)c1ccccn1` (centres undefined) [Rosiglitazone] it is 4.26%; for `Cc1ccccc1C(C(=O)NC1CCCCC1)N(C(=O)Cn1ccnc1C)c1cccc(F)c1` (centres undefined) [AGI_5198] it is 48.3%. For `NC(=O)c1ccc(N)nc1` [6_Aminonicotinamide], the “rescue of cell number” value turned out to be 32.1%. As to `Cc1ccccc1C(C(=O)NC1CCCC1)N(C(=O)Cn1cnc2ccccc21)c1cccc(F)c1` (centres undefined) [ML309], the “rescue of cell number” value was found to be 94.6%.

Regarding `Nc1ccn([C@@H]2C=C(CO)[C@@H](O)[C@H]2O)c(=O)n1` [Cyclopentenyl_cytosine], the “rescue of cell number” value amounted to 84.2%. `OC(c1cc(C(F)(F)F)nc2c(C(F)(F)F)cccc12)C1CCCCN1` (centres undefined) [Mefloquine]: the “rescue of cell number” value was -12%.

Consider `CNC(=O)c1ccc2cc([C@@]3(O)CCn4cncc43)ccc2c1` [TAK_700], for which the “rescue of cell number” value is -25.3%. Consider `Cc1[nH]nc(C(F)(F)F)c1Cc1sc2c(c1C(=O)N1C[C@](C)(O)CO1)c(=O)n(C)c(=O)n2C(C)C` [AZD3965], for which the “rescue of cell number” value worked out at 0.308%. In the case of `S=c1[nH]cnc2nc[nH]c12` [Mercaptopurine], the “rescue of cell number” value was -32.1%. On to `C=C(C)[C@@H]1CC[C@]2(C(=O)O)CC[C@]3(C)[C@H](CC[C@@H]4[C@@]5(C)CC[C@H](O)C(C)(C)[C@@H]5CC[C@]43C)[C@@H]12` [Betulinic_acid], for which the “rescue of cell number” value is 17.8%. Turning to `CCCCCCCCCCCCC/C=C/[C@@H](O)[C@H](CO)N(C)C` [N_N_Dimethylsphingosine], the “rescue of cell number” value amounted to 18.1%.

On to `NC(=O)c1[nH]nc([C@@H]2O[C@H](CO)[C@@H](O)[C@H]2O)c1O` [Pyrazofurin], for which the “rescue of cell number” value stood at 26.5%. On to `NCCc1ccc(S(=O)(=O)F)cc1` [AEBSF], for which the “rescue of cell number” value was determined as 50.3%.

Turning to `Cc1c(-c2ccc(-c3ccccc3F)cc2)nc2ccc(F)cc2c1C(=O)O` [Brequinar], the “rescue of cell number” value was found to be 126%. `Fc1ccc(CNc2ncnc3ccc(F)cc23)cc1` [Spautin_1]: the “rescue of cell number” value is 2.13%.

As for `CCCCCCCCCCC[C@@H](C[C@@H]1OC(=O)[C@H]1CCCCCC)OC(=O)[C@H](CC(C)C)NC=O` [Orlistat], the “rescue of cell number” value was -10.4%.
